Measured values published in patent US20060178374A1, “Aminoheteroaryl compounds as protein kinase inhibitors” (AGOURON PHARMACEUTICALS, INC., priority 2004, published 2006).

Target: HGFR (c-Met) (Homo sapiens, UniProt P08581)
Experiment: HGFR Continuous-Coupled Spectrophotometric Assay
Type: biochemical
Settings: HGFR enzyme 50 nM, Met-2 peptide substrate, 37° C.
Method in brief: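 Human HGFR (50 nM final) phosphorylates the Met-2 activation-loop peptide, with ADP formation coupled through PK/LDH to NADH consumption, read as the A340 decrease over 10 min at 37 °C. Buffer was HEPES pH 7.5 with MgCl2, DTT, PEP and ATP.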

Chain of HGFR (c-Met) (P08581 974-1390): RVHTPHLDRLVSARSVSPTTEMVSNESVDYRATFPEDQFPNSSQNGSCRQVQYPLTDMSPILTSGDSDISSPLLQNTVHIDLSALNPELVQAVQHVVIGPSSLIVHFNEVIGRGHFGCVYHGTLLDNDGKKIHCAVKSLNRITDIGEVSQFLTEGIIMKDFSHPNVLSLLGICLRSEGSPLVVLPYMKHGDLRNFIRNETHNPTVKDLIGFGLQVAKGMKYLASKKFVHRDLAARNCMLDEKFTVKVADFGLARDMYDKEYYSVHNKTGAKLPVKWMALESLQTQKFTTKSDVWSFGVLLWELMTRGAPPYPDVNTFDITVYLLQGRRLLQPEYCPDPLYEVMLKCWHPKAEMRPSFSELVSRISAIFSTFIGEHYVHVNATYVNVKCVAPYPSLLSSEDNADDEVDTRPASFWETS

- Ki: 40 nM
Structure (SMILES): CC(Oc1cc(-c2ccc3nc(C(=O)N(C)C)cn3c2)cnc1N)c1c(Cl)ccc(F)c1Cl (stereo not shown) [Example 155, 6-{6-amino-5-[1-(2,6-dichloro-3-fluorophenyl)ethoxy]pyridin-3-yl}-N,N-dimethylimidazo[1,2-a]pyridine-2-carboxamide]
